# Assay results reported in patent US10413529B2, “Methods of inhibiting cataracts and presbyopia” (UNIVERSITY OF MASSACHUSETTS, priority 2013, dated 2019).
# Like-named read-outs stand apart in the source and are kept apart here.
# Legend:
# human cadaver lenses = system: human cadaver lenses; design: key to LOCS III grade, Cortical / LOCS III grade, NO / LOCS III grade, PS / LOCS III grade, NC: LOCS III cataract grade on a decimal scale (higher = more severe)
# Protocol: Within about 24 hours of death, the eyeball is harvested, sliced and the vitreous is removed. The lens is excised and placed in an incubation medium called Optisol®. Optisol® is a corneal storage medium containing chondroitin sulfate, dextran 40, optisol base powder, sodium bicarbonate, gentamycin, amino acids, sodium pyruvate, L-glutamine, 2-mercaptoethanol and purified water. OD is the right eye and OS is the left eye.
# Lens opacities are classified according to the LOCS III system. LOCS III measurements are taken with a slit lamp microscope. The LOCS III contains an expanded set of standards selected from the Longitudinal Study of Cataract slide library at the Center for Clinical Cataract Research, Boston, Mass. It includes six slit lamp images for grading nuclear color (NC) and nuclear opalescence (NO), five retroillumination images for grading cortical cataract (C), and five retroillumination images for grading posterior subcapsular (P) cataract. Cataract severity is graded on a decimal scale, with the standards have regularly spaced intervals on the scale.
# In all cases, the control is Optisol® medium. The remaining data points are for isolated human cadaver lenses treated with CAPEG4 solutions with Optisol®.
# γ-crystallin [1] = assay: DLS, aggregation of γ-crystallin (stated for γD and γS together); assay type: biochemical; details: dilute solution, 22° and 37° C.
# Protocol: Scattering intensity was measured at angles between 30° and 90° at 5° intervals, corresponding to a scattering wave vector (q) range between 8.41×10^6 and 2.30×10^7 m^−1. The scattering wave vector is defined as q=4πn sin (θ/2)/λ, where θ is the scattering angle, and λ=514.5, the wavelength of the argon laser in vacuum, and n is 1.33, the refractive index of water. The temperature of the sample was held at constant temperature of 4 to 37±0.1° C. by a circulating water bath.
# The correlation function was analyzed using CONTIN analysis to calculate lag times for the correlation functions at measured angles. The peaks represent the diffusive mode of the proteins. The delay times (τ) were converted to Γ and graphed versus q^2. The slope of the fitted line is the diffusion coefficient (D). The lines are fitted such that the intercept is zero because a non-zero value of q=0 is unphysical. The Γ versus q^2 plots were linear with r^2 values of 0.95 or greater.
# All solutions were filtered with 0.22 μm hydrophobic PVDF membranes (Fisher Scientific) into 10 mm diameter borosilicate glass tubes and sealed. Solutions were allowed to equilibrate for thirty minutes prior to measuring light scattering.
# γ-crystallins were subjected to a variety of experimental conditions, including a range of pHs (5, 6, 7, 8, 9, 10, 11), concentrations of KCl (100 mM, 150 mM, 300 mM, 500 mM, 1000 mM) and temperature (4.5° C., 22° C., 37° C.). The pH and salt concentration were adjusted via overnight dialysis at 4° C. and their final concentration adjusted to 1.0 g/L.
# It had been hypothesized that disulfide bonds might mediate the observed γ-crystallin aggregates. The DLS of the γ-crystallin proteins was also measured in 5 mM DTT, and in the presence of 1.0 g/L α-crystallin. […] Thus, this hypothesis was incorrect.
# Further, the synthesized α-crystallin proteins were mixed with γ-crystallin proteins to determine if the chaperoning ability of α-crystallin disrupts the γ-crystallin aggregates. The α-A and α-B crystallins were each individually mixed with γD- or γS-crystallin in a molar ratio of 3:1, respectively, mimicking the ratio found in the human eye lens. All solutions were allowed to equilibrate for an hour at 4° C.
# γ-crystallin [2] = assay: Circular dichroism of modified γ-crystallin (secondary structure); assay type: biochemical; details: 0.5 mg/mL, 22° C., versus native protein
# Protocol: Crystallin samples were dialyzed overnight into 10 mM Na2HPO4/NaH2PO4 buffer pH 6.8 and measured at a concentration of 0.5 mg/mL. CD spectra were measured on a Jasco J715 spectropolarimeter at 22° C. using a quartz cell of 1 mm path length.
# [3] = 10 mg/mL CAPEG4 (OD), 0 HR, Table 7
# [4] = 10 mg/mL CAPEG4, 24 HR, Table 7
# [5] = 10 mg/mL CAPEG4, 72 HR, Table 7
# [6] = 50 mg/mL CAPEG4 (OD), 0 HR, Table 8
# [7] = 50 mg/mL CAPEG4, 24 HR, Table 8
# [8] = 50 mg/mL CAPEG4, 72 HR, Table 8
# [9] = 100 mg/mL CAPEG4 (OD), 0 HR, Table 9
# [10] = 100 mg/mL CAPEG4 (OD), 0 HR, Table 10 (repeat, different eyes)
# [11] = 100 mg/mL CAPEG4, 24 HR, Table 9
# [12] = 100 mg/mL CAPEG4, 24 HR, Table 10 (repeat, different eyes)
# [13] = 100 mg/mL CAPEG4, 72 HR, Table 9
# [14] = 100 mg/mL CAPEG4, 72 HR, Table 10 (repeat, different eyes)
# [15] = 200 mg/mL CAPEG4 (OD), 0 HR, Table 11
# [16] = 200 mg/mL CAPEG4 (OD), 0 HR, Table 12 (second pair of lenses)
# [17] = 200 mg/mL CAPEG4, 24 HR, Table 11
# [18] = 200 mg/mL CAPEG4, 24 HR, Table 12 (second pair of lenses)
# [19] = 200 mg/mL CAPEG4, 72 HR, Table 11
# [20] = 200 mg/mL CAPEG4, 72 HR, Table 12 (second pair of lenses)
smiles,measurement,setting,value
NCCOCCOCCOCCOCCC(=O)O [CAPEG4],observation on lens capsule and lens volume,human cadaver lenses,wrinkling of the lens capsule was observed and subjectively exhibited some loss of lens volume
same,change of LOCS III grades versus control,human cadaver lenses; 10 mg/mL CAPEG4,no significant change in the experimental versus control samples
same,"LOCS III grade, Cortical",human cadaver lenses; [3],1.0
same,"LOCS III grade, NC",human cadaver lenses; [3],5.0
same,"LOCS III grade, NO",human cadaver lenses; [3],5.0
same,"LOCS III grade, PS",human cadaver lenses; [3],0.9
same,"LOCS III grade, Cortical",human cadaver lenses; [4],1.0
same,"LOCS III grade, NC",human cadaver lenses; [4],5.0
same,"LOCS III grade, NO",human cadaver lenses; [4],5.0
same,"LOCS III grade, PS",human cadaver lenses; [4],0.9
same,"LOCS III grade, Cortical",human cadaver lenses; [5],0.9
same,"LOCS III grade, NC",human cadaver lenses; [5],5.0
same,"LOCS III grade, NO",human cadaver lenses; [5],5.0
same,"LOCS III grade, PS",human cadaver lenses; [5],0.9
same,"LOCS III grade, Cortical",human cadaver lenses; [6],1.0
same,"LOCS III grade, NC",human cadaver lenses; [6],1.7
same,"LOCS III grade, NO",human cadaver lenses; [6],2.0
same,"LOCS III grade, PS",human cadaver lenses; [6],1.1
same,"LOCS III grade, Cortical",human cadaver lenses; [7],1.0
same,"LOCS III grade, NC",human cadaver lenses; [7],1.7
same,"LOCS III grade, NO",human cadaver lenses; [7],2.0
same,"LOCS III grade, PS",human cadaver lenses; [7],0.9
same,"LOCS III grade, Cortical",human cadaver lenses; [8],1.0
same,"LOCS III grade, NC",human cadaver lenses; [8],1.9
same,"LOCS III grade, NO",human cadaver lenses; [8],2.0
same,"LOCS III grade, PS",human cadaver lenses; [8],0.9
same,difference of cortical cataracts and NO versus controls,"human cadaver lenses; 50 mg/mL CAPEG4, up to 72 hours",no significant differences between the controls and 50 mg/mL incubation
same,"LOCS III grade, Cortical",human cadaver lenses; [9],3.0
same,"LOCS III grade, NC",human cadaver lenses; [9],1.3
same,"LOCS III grade, NO",human cadaver lenses; [9],1.8
same,"LOCS III grade, PS",human cadaver lenses; [9],0.9
same,"LOCS III grade, Cortical",human cadaver lenses; [10],3.0
same,"LOCS III grade, NC",human cadaver lenses; [10],3.0
same,"LOCS III grade, NO",human cadaver lenses; [10],3.0
same,"LOCS III grade, PS",human cadaver lenses; [10],1.8
same,"LOCS III grade, Cortical",human cadaver lenses; [11],2.9
same,"LOCS III grade, NC",human cadaver lenses; [11],1.1
same,"LOCS III grade, NO",human cadaver lenses; [11],1.2
same,"LOCS III grade, PS",human cadaver lenses; [11],0.9
same,"LOCS III grade, Cortical",human cadaver lenses; [12],2.6
same,"LOCS III grade, NC",human cadaver lenses; [12],3.0
same,"LOCS III grade, NO",human cadaver lenses; [12],3.0
same,"LOCS III grade, PS",human cadaver lenses; [12],1.5
same,"LOCS III grade, Cortical",human cadaver lenses; [13],2.7
same,"LOCS III grade, NC",human cadaver lenses; [13],1.1
same,"LOCS III grade, NO",human cadaver lenses; [13],1.2
same,"LOCS III grade, PS",human cadaver lenses; [13],0.9
same,"LOCS III grade, Cortical",human cadaver lenses; [14],2.0
same,"LOCS III grade, NC",human cadaver lenses; [14],3.2
same,"LOCS III grade, NO",human cadaver lenses; [14],3.0
same,"LOCS III grade, PS",human cadaver lenses; [14],1.0
same,"LOCS III grade, Cortical",human cadaver lenses; [15],2.5
same,"LOCS III grade, NC",human cadaver lenses; [15],2.4
same,"LOCS III grade, NO",human cadaver lenses; [15],2.4
same,"LOCS III grade, PS",human cadaver lenses; [15],0
same,"LOCS III grade, Cortical",human cadaver lenses; [16],1.3
same,"LOCS III grade, NC",human cadaver lenses; [16],2.8
same,"LOCS III grade, NO",human cadaver lenses; [16],3.2
same,"LOCS III grade, PS",human cadaver lenses; [16],0.9
same,"LOCS III grade, Cortical",human cadaver lenses; [17],2.2
same,"LOCS III grade, NC",human cadaver lenses; [17],2.4
same,"LOCS III grade, NO",human cadaver lenses; [17],2.4
same,"LOCS III grade, PS",human cadaver lenses; [17],0
same,"LOCS III grade, Cortical",human cadaver lenses; [18],1.0
same,"LOCS III grade, NC",human cadaver lenses; [18],2.8
same,"LOCS III grade, NO",human cadaver lenses; [18],3.2
same,"LOCS III grade, PS",human cadaver lenses; [18],0.9
same,"LOCS III grade, Cortical",human cadaver lenses; [19],2.0
same,"LOCS III grade, NC",human cadaver lenses; [19],2.4
same,"LOCS III grade, NO",human cadaver lenses; [19],2.4
same,"LOCS III grade, PS",human cadaver lenses; [19],0
same,"LOCS III grade, Cortical",human cadaver lenses; [20],0.9
same,"LOCS III grade, NC",human cadaver lenses; [20],2.8
same,"LOCS III grade, NO",human cadaver lenses; [20],3.2
same,"LOCS III grade, PS",human cadaver lenses; [20],0.9
same,cause of reduction in cataracts (agent versus pH of medium),human cadaver lenses; compared with Optisol lowered to the same pH with citric acid,due to the CAPEG4 and not a pH effect of the medium
same,aggregation of γ-crystallin modified with the agent (DLS),γ-crystallin [1],prevented aggregation of proteins
same,secondary structure of modified γ-crystallin (CD spectra),γ-crystallin [2],showed a similar trend to modifications made with PEG4 and PEG24
